Source: patent US8445497B2, “Compounds for the treatment of hepatitis C” (Bristol-Myers Squibb Company, priority 2010, dated 2013)

What was measured:
[1] = biological target: T1, HCV NS5B (Hepatitis C virus genotype 1b, UniProt Q9WMX2); assay: HCV NS5B RdRp enzyme assay; format: biochemical; details: HCV NS5B RdRp genotype 1b
T1 construct: The protein was expressed with an 18 amino acid C-terminal truncation to enhance the solubility; made in house; host or cells: E. coli BL21(DE3)
Method: HCV NS5B RdRp cloning, expression, and purification. The cDNA encoding the NS5B protein of HCV, genotype 1b, was cloned into the pET21a expression vector. The protein was expressed with an 18 amino acid C-terminal truncation to enhance the solubility. The E. coli competent cell line BL21(DE3) was used for expression of the protein. Cultures were grown at 37° C. for ˜4 hours until the cultures reached an optical density of 2.0 at 600 nm. The cultures were cooled to 20° C. and induced with 1 mM IPTG. Fresh ampicillin was added to a final concentration of 50 μg/mL and the cells were grown overnight at 20° C.
Cell pellets (3 L) were lysed for purification to yield 15-24 mgs of purified NS5B. The lysis buffer consisted of 20 mM Tris-HCl, pH 7.4, 500 mM NaCl, 0.5% triton X-100, 1 mM DTT, 1 mM EDTA, 20% glycerol, 0.5 mg/ml lysozyme, 10 mM MgCl2, 15 ug/ml deoxyribonuclease I, and Complete TM protease inhibitor tablets (Roche). After addition of the lysis buffer, frozen cell pellets were resuspended using a tissue homogenizer. To reduce the viscosity of the sample, aliquots of the lysate were sonicated on ice using a microtip attached to a Branson sonicator. […]
Standard HCV NS5B RdRp enzyme assay. […] Plates were read on a Packard Top Count NXT after >1 hr incubation at room temperature. […]

[2] = system: genotype 1a or 1b HCV replicon in Huh-7 cells; assay: HCV replicon luciferase assay; format: cell-based; details: Hepatitis C virus, 72 h; Huh-7 HCV replicon, Renilla luciferase, 3 days; genotype 1a or 1b not stated
Method: Cell lines. The cell lines used to evaluate compounds consist of a human hepatocyte derived cell line (Huh-7) that constitutively expresses a genotype 1a or 1b HCV replicon containing a Renilla luciferase reporter gene. These cells were maintained in Dulbecco's modified Eagle medium (DMEM) containing 10% FBS, 100 U/mL penicillin/streptomycin and 1.0 mg/mL G418.
HCV replicon luciferase assay. To evaluate compound efficacy, HCV replicon cells were seeded in 96-well plates in DMEM containing 10% FBS at a cell density of 10^4/well. Following incubation at 37° C. overnight, compounds serially diluted in DMSO were added to the cell plates. Alternatively, titrated compounds were transferred to sterile 384-well tissue-culture treated plates and the plates seeded with 50 μL of cells at a density of 2.4×10^3 cells/well in DMEM containing 4% FCS (final DMSO concentration at 0.5%). After 3 days incubation at 37° C., cells were analyzed for Renilla Luciferase activity using the EnduRen substrate (Promega cat #E6485) according to the manufacturer's directions. Briefly, the EnduRen substrate was diluted in DMEM and then added to the plates to a final concentration of 7.5 μM. The plates were incubated for at least 1 h at 37° C. then read on a TopCount NXT Microplate Scintillation and Luminescence Counter (Packard) or Viewlux Imager (PerkinElmer) using a luminescence program. […]

[3] = system: HCV; details: single agent: transient decrease then rebound; more robust drop with interferon and ribavirin; cited from earlier work
[4] = extended dosing of the combination regimens with interferon and ribavirin; cited from earlier work
[5] = system: HCV; details: combination therapy, Poynard et al. 1998; cited from earlier work

T1 sequence (Q9WMX2 2420-2992): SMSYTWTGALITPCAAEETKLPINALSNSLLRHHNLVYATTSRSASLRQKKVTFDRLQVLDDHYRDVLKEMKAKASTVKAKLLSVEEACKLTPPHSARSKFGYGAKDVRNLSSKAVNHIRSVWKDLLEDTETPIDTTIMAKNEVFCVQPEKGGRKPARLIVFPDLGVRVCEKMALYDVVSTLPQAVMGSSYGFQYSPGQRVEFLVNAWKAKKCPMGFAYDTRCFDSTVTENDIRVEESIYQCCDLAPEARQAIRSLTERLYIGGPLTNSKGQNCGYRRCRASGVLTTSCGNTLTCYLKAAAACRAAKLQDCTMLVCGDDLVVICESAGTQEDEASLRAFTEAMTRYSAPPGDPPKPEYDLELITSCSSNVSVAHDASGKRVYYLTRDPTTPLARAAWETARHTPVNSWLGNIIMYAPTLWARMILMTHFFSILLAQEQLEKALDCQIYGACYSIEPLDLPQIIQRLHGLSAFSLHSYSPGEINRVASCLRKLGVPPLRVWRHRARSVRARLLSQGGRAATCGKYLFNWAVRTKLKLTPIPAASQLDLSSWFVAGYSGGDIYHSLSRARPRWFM

Compound: CNC(=O)c1c(-c2ccc(Oc3ccc(F)cc3)cc2)oc2ccc(-c3cc(C(=O)NC4(c5ncccn5)CC4)c(OC)cc3C)c(F)c12 [4-Fluoro-2-(4-(4-fluorophenoxy)phenyl)-5-(4-methoxy-2-methyl-5-(1-(pyrimidin-2-yl)cyclopropylcarbamoyl)phenyl)-N-methylbenzofuran-3-carboxamide]
- IC50 [1]: 24 µM
- EC50 [2]: 5 µM

Compound: CNC(=O)c1c(-c2ccc(F)cc2)oc2cc(N(CCO)S(C)(=O)=O)c(C3CC3)cc12 [HCV-796]
- HCV RNA levels in patients [3]: showed an ability to reduce HCV RNA levels in patients
- hepatic toxicity [4]: hepatic toxicity observed

Compound: alpha-interferon and ribavirin
- sustained efficacy, share of patients [5]: 40%
